The values that follow come from patent US20190169669A1, “[…] OF […] IDENTIFICATION OF NATURAL LIGAND OF SAID RECEPTOR AND USES THEREOF” (Institut National de la Recherche Agronomique, priority 2016, published 2019).

The assay relates to SlitOR5. Kind of assay: Single-sensillum recordings on Drosophila at1 olfactory neurons expressing SlitOR5. The format is cell-based, Spodoptera littoralis. The following applies: for significance of response versus solvent alone: n=7, Kruskal-Wallis ANOVA with Dunn's post-hoc test. Here is the method: SlitOR5 can be heterologously expressed in vivo in an organism, for example Drosophila melanogaster, using transgenesis (e.g. the Gal4-UAS system in D. melanogaster). SlitOR5 can be expressed in a large part of the endogenous olfactory sensory neurons (OSNs) of the organism (for instance using the ORco promotor) or in a given subset of the OSN population. The modified responses of the antenna or of the targeted OSNs are then recorded using, respectively, electroantennography (EAG) and single sensillum recording (SSR). Some D. melanogaster mutant lines may be used to replace a native Drosophila OR with SlitOR5, such as the ab3A mutant line which allows for expression of SlitOR5 in ORNs usually expressing DmelOR22a (Hallem et al., Cell 2004, 117(7):965-979), and the DmelOr67dGAL4 mutant knock-in line, which allows for expression of SlitOR5 in place of DmelOR67d, in the unique OSN of the atl Drosophila sensilla (Kurtovic et al. Nature 2007, 446(7135):542-546). The candidate agent activity is measured as the antenna depolarization (EAG) or the number of action potential (SSR) generated by stimulation of an air flow containing the candidate agent (typically from 0.1 μg to 100 μg of the candidate agent loaded in the stimulation cartridge). Depolarization and action potential number are compared, respectively, to depolarization and action potential number generated by the agent solvent alone.
The transformant UAS-SlitOR5 balanced fly line was generated by BestGene Inc. (Chino Hills, Calif., USA), using the PhiC31 integrase system. Briefly, recombinant pUAST.attB-SlitOR5 plasmids were injected into embryos of a D. melanogaster line containing an attP insertion site within the second chromosome (genotype y1 M{vas-int.Dm}ZH-2A w*; M{3×P3-RFP.attP′}ZH-51C), leading to non-random integration. To drive expression of SlitOR5 in neurons housed in atl sensilla, the transformant UAS-SlitOR5 line was crossed to a line carrying the mutant knock-in allele Or67d^GAL4 (kindly provided by Dr. Barry Dickson, IMP, Vienna, Austria) to generate a double homozygous line w;UAS-SlitOr5;Or67d^GAL4. Flies were reared on standard cornmeal-yeast-agar medium and kept in a climate- and light-controlled environment (25° C., 12:12 light:dark cycle). The presence of the UAS-SlitO5 transgene was verified by PCR on genomic DNA extracted from two flies, and the expression of SlitOR5 in fly antennae was verified by RT-PCR on total RNA extracted from >100 pairs of antennae.
The response spectrum of SlitOR5 was tested by means of single-sensillum recordings on flies expressing the SlitOR5 transgene in atl neurons, instead of the endogenous receptor DmelOR67d. Two- to 10-day-old male flies were restrained in a plastic pipette tip with only the head protruding from the narrow end. The pipette tip was fixed with dental wax on a microscope glass slide with the ventral side of the fly facing upward. Then, the antenna was gently placed on a piece of glass slide and maintained by placing a glass capillary between the 2nd and 3rd antennal segments. Afterwards, the slides were placed under a light microscope (BX51WI, Olympus, Tokyo, Japan) equipped with a 100× magnification objective. Desiccation of the flies was avoided thanks to a constant 1.5 L·min^−1 flux of charcoal-filtered and humidified air, delivered through a glass tube of a 7 mm diameter, which terminated ca. 1.5 cm from the antenna.
Stimulation cartridges were built by placing a 1 cm^2 filter paper in the large opening end of a Pasteur pipette and dropping 10 μl of an odorant solution onto the paper before closing the pipette with a 1 mL plastic pipette tip. A screening panel of 26 pheromone compounds (see Table 1 for detail) were used at a 1 μg/μl dilution in hexane (10 μg deposited on the filter paper). Pipettes with filter papers containing 10 μL of solvent were used as controls. […]

The mark [1] stands for this setting: response spectrum screen, 10 μg loaded in the stimulus cartridge.

For the compound `CC/C=C/C=C\CCCCCCCCOC(C)=O` [Z9,E11-14:OAc, (Z,E)-9,11-tetradecadienyl acetate], the “response of at1 neurons (firing rate), dose-response” value (dose 1 μg loaded on the stimulus cartridge, n=5) came out at 15 spikes·s^−1 and the “response of at1 neurons (firing rate), dose-response” value (dose 10 μg loaded on the stimulus cartridge, n=5) was 43 spikes·s^−1. Further, the “mean net response (firing rate) of SlitOR5-expressing neurons” value (response spectrum screen, 10 μg loaded in the stimulus cartridge, 500 ms air pulse, n=7, w;UAS-SlitOr5;Or67d^GAL4 flies) came out at 75 spikes·s^−1. Moreover, under setting [1], the “significance of response versus solvent alone” value is reported as “significant response”. For the same compound, the “response of at1 neurons versus solvent alone, dose-response” value (the two lower doses (dose range 0.01 μg to 10 μg), n=5) was “did not significantly differ”.

Regarding `CC/C=C\C=C/CCCCCCCCOC(C)=O` [Z9,Z11-14:OAc, (Z,Z)-9,11-tetradecadienyl acetate], the “significance of response versus solvent alone” value under setting [1] is listed as “not significant”.

In the case of `CC/C=C\CCCCCCCCOC(C)=O` [Z9-12:OAc, (Z)-9-dodecenyl acetate], the “significance of response versus solvent alone” value under setting [1] is “not significant”.

For `CCCC/C=C\CCCCCCCCOC(C)=O` [Z9-14:OAc, (Z)-9-tetradecenyl acetate], under setting [1], the “significance of response versus solvent alone” value is reported as “not significant”.
